In PubChem BioAssay AID248 (DTP/NCI, 2004):
Several values for one entry are separate records, joined by “and”; a condition that tells them apart may be missing. Identical values can stand only once. Toxic doses and inconclusive results are not listed. No stated cut-off is given here; in the data, active means T/C of 150% or more; inactive means T/C below 125%.

System: L1210 leukemia ip in BDF1 mice, survival T/C
Assay: NCI In Vivo Anticancer Drug Screen. Data for tumor model L1210 Leukemia (intraperitoneal) in B6D2F1 (BDF1) mice
Conditions: endpoint: mean survival time, higher = longer survival
Procedure, shortened: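 Mice bearing the transplanted tumor received compound or vehicle. Survival of the treated group was divided by that of the vehicle-treated control group to give the ratio.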

[1] = dose: 100.0 mg/kg/injection, schedule: Q04DX003 (ip), vehicle: Klucel (hydroxypropylcellulose) (HPC)
[2] = dose: 200.0 mg/kg/injection, schedule: Q04DX003 (ip), vehicle: Klucel (hydroxypropylcellulose) (HPC)
[3] = dose: 400.0 mg/kg/injection, schedule: Q04DX003 (ip), vehicle: Klucel (hydroxypropylcellulose) (HPC)
[4] = dose: 100.0 mg/kg/injection, schedule: Q01DX009 (ip), vehicle: Klucel (hydroxypropylcellulose) (HPC)
[5] = dose: 50.0 mg/kg/injection, schedule: Q01DX009 (ip), vehicle: Klucel (hydroxypropylcellulose) (HPC)
[6] = dose: 200.0 mg/kg/injection, schedule: Q01DX009 (ip), vehicle: Klucel (hydroxypropylcellulose) (HPC)
[7] = dose: 100.0 mg/kg/injection, schedule: Q01DX001 (ip), vehicle: saline
[8] = dose: 200.0 mg/kg/injection, schedule: Q01DX001 (ip), vehicle: saline
[9] = dose: 400.0 mg/kg/injection, schedule: Q01DX001 (ip), vehicle: saline

Measured: T/C

O=S(=O)(CCCc1ccccc1)c1ccccc1
inactive: dose: 50.0 mg/kg/injection, schedule: Q01DX001 (ip), vehicle: other 102 % of control | dose: 100.0 mg/kg/injection, schedule: Q01DX001 (ip), vehicle: other 102 % of control | [1] 98 % of control | dose: 200.0 mg/kg/injection, schedule: Q01DX001 (ip), vehicle: other 104 % of control | [2] 100 % of control | dose: 400.0 mg/kg/injection, schedule: Q01DX001 (ip), vehicle: other 116 % of control | [3] 102 % of control

CC1(C)C2CCC1(C)C(OCCC#N)C2 (centres undefined)
inactive: dose: 100.0 mg/kg/injection, schedule: Q04DX002 (ip), vehicle: saline 93 % of control | dose: 200.0 mg/kg/injection, schedule: Q04DX002 (ip), vehicle: saline 107 % of control | dose: 400.0 mg/kg/injection, schedule: Q04DX002 (ip), vehicle: saline 104 % of control

O=[N+]([O-])c1ccc(/C=N/Nc2ccnc3cc(Cl)ccc23)s1
inactive: dose: 100.0 mg/kg/injection, schedule: Q04DX003 (ip), vehicle: saline 96 % of control | dose: 200.0 mg/kg/injection, schedule: Q04DX003 (ip), vehicle: saline 96 % of control | dose: 400.0 mg/kg/injection, schedule: Q04DX003 (ip), vehicle: saline 96 % of control

CC(C)COC(=O)Nc1cccc(O)c1
inactive: dose: 100.0 mg/kg/injection, schedule: Q01DX009 (ip), vehicle: saline with Tween-80 91 % of control | dose: 200.0 mg/kg/injection, schedule: Q01DX009 (ip), vehicle: saline with Tween-80 90 % of control | dose: 400.0 mg/kg/injection, schedule: Q01DX009 (ip), vehicle: saline with Tween-80 94 % of control

COc1cc(C=Nc2ccc(-n3ccnc3C)cc2)ccc1N(CCCl)CCCl
inactive: dose: 1.0 mg/kg/injection, schedule: Q01DX009 (ip), vehicle: Klucel (hydroxypropylcellulose) (HPC) 110 % of control | dose: 2.0 mg/kg/injection, schedule: Q01DX009 (ip), vehicle: Klucel (hydroxypropylcellulose) (HPC) 114 % of control | dose: 2.5 mg/kg/injection, schedule: Q01DX009 (ip), vehicle: Klucel (hydroxypropylcellulose) (HPC) 104 % of control and 106 % of control | dose: 3.8 mg/kg/injection, schedule: Q01DX009 (ip), vehicle: Klucel (hydroxypropylcellulose) (HPC) 104 % of control | dose: 5.0 mg/kg/injection, schedule: Q01DX009 (ip), vehicle: Klucel (hydroxypropylcellulose) (HPC) 114 % of control | dose: 8.8 mg/kg/injection, schedule: Q04DX003 (ip), vehicle: Klucel (hydroxypropylcellulose) (HPC) 98 % of control and 123 % of control | dose: 19.0 mg/kg/injection, schedule: Q01DX009 (ip), vehicle: Klucel (hydroxypropylcellulose) (HPC) 110 % of control | dose: 20.0 mg/kg/injection, schedule: Q01DX009 (ip), vehicle: Klucel (hydroxypropylcellulose) (HPC) 124 % of control | dose: 29.0 mg/kg/injection, schedule: Q04DX003 (ip), vehicle: Klucel (hydroxypropylcellulose) (HPC) 102 % of control | dose: 30.0 mg/kg/injection, schedule: Q04DX003 (ip), vehicle: Klucel (hydroxypropylcellulose) (HPC) 104 % of control

O=C1CSc2cc[nH]c21
inactive: [4] 95 % of control | [1] 100 % of control | [2] 95 % of control | [3] 98 % of control

COc1ccc2c(c1)c1c(C)c3cnccc3c(C)c1n2CC1CO1 (centres undefined)
inactive: dose: 4.7 mg/kg/injection, schedule: Q01DX009 (ip), vehicle: saline with Tween-80 100 % of control | dose: 9.4 mg/kg/injection, schedule: Q01DX009 (ip), vehicle: saline with Tween-80 102 % of control | dose: 18.75 mg/kg/injection, schedule: Q04DX003 (ip), vehicle: saline with Tween-80 116 % of control | dose: 37.5 mg/kg/injection, schedule: Q04DX003 (ip), vehicle: saline 120 % of control | dose: 75.0 mg/kg/injection, schedule: Q04DX003 (ip), vehicle: saline 91 % of control

CCC(c1ccc2cc(OC)ccc2c1)C(C(=O)O)C(=O)O (centres undefined)
inactive: [5] 96 % of control | [4] 107 % of control | [6] 96 % of control

CCCN(CCC)CCSC(=S)NCCOC
inactive: dose: 4.0 mg/kg/injection, schedule: Q01DX001 (sc), vehicle: olive oil, sesame oil, peanut oil 110 % of control | dose: 8.0 mg/kg/injection, schedule: Q01DX001 (sc), vehicle: olive oil, sesame oil, peanut oil 112 % of control | dose: 16.0 mg/kg/injection, schedule: Q01DX001 (sc), vehicle: olive oil, sesame oil, peanut oil 116 % of control | dose: 32.0 mg/kg/injection, schedule: Q01DX001 (sc), vehicle: olive oil, sesame oil, peanut oil 118 % of control | dose: 50.0 mg/kg/injection, schedule: Q01DX001 (ip), vehicle: olive oil, sesame oil, peanut oil 96 % of control | dose: 50.0 mg/kg/injection, schedule: Q01DX009 (ip), vehicle: acetone 93 % of control | dose: 100.0 mg/kg/injection, schedule: Q01DX001 (ip), vehicle: acetone 110 % of control | dose: 100.0 mg/kg/injection, schedule: Q01DX001 (ip), vehicle: olive oil, sesame oil, peanut oil 92 % of control | dose: 100.0 mg/kg/injection, schedule: Q01DX009 (ip), vehicle: acetone 101 % of control | dose: 200.0 mg/kg/injection, schedule: Q01DX001 (ip), vehicle: acetone 104 % of control | dose: 200.0 mg/kg/injection, schedule: Q01DX001 (ip), vehicle: olive oil, sesame oil, peanut oil 103 % of control | dose: 400.0 mg/kg/injection, schedule: Q01DX001 (ip), vehicle: olive oil, sesame oil, peanut oil 88 % of control

CCCC(=O)Nc1ccn(C2OC(COC(=O)CCC)C(OC(=O)CCC)C2OC(=O)CCC)c(=O)n1 (centres undefined)
inactive: dose: 177.0 mg/kg/injection, schedule: Q01DX001 (ip), vehicle: carboxymethylcellulose (CMC) 101 % of control | dose: 266.0 mg/kg/injection, schedule: Q01DX001 (ip), vehicle: carboxymethylcellulose (CMC) 116 % of control | dose: 400.0 mg/kg/injection, schedule: Q01DX001 (ip), vehicle: carboxymethylcellulose (CMC) 117 % of control

COC1C=CC(OC)(C(OC)OC)O1 (centres undefined)
inactive: [7] 104 % of control | [8] 101 % of control | [9] 98 % of control

CC(=O)Nc1c(Cl)cc2c(c1Cl)C(=O)c1ccccc1-2
inactive: [1] 105 % of control | [2] 100 % of control | [3] 103 % of control

CC(=O)OC1C(OC(C)=O)C(OS(=O)(=O)c2ccc(C)cc2)C(OC(C)=O)C(OS(=O)(=O)c2ccc(C)cc2)C1OC(C)=O (centres undefined)
inactive: dose: 100.0 mg/kg/injection, schedule: Q04DX003 (ip), vehicle: saline with Tween-80 97 % of control | dose: 200.0 mg/kg/injection, schedule: Q04DX003 (ip), vehicle: saline with Tween-80 92 % of control | dose: 400.0 mg/kg/injection, schedule: Q04DX003 (ip), vehicle: saline with Tween-80 95 % of control

NS(=O)(=O)c1ccc(N=Nc2ncc(CCNC3=CC(=O)C(=O)c4ccccc43)[nH]2)cc1
inactive: dose: 12.5 mg/kg/injection, schedule: Q01DX009 (ip), vehicle: Klucel (hydroxypropylcellulose) (HPC) 93 % of control | dose: 25.0 mg/kg/injection, schedule: Q01DX009 (ip), vehicle: Klucel (hydroxypropylcellulose) (HPC) 96 % of control | [5] 96 % of control and 92 % of control

CCCCCCCCCCCC(=O)NC(CCC(=O)O)C(=O)O (centres undefined)
inactive: [7] 111 % of control | [8] 103 % of control | [9] 105 % of control

Cc1cc(N=NC(=N)N)c(C(C)C)cc1NN=C(N)N
inactive: dose: 60.0 mg/kg/injection, schedule: Q01DX Z (oral), vehicle: carboxymethylcellulose (CMC) 106 % of control | dose: 120.0 mg/kg/injection, schedule: Q01DX Z (oral), vehicle: carboxymethylcellulose (CMC) 100 % of control | dose: 480.0 mg/kg/injection, schedule: Q01DX Z (oral), vehicle: carboxymethylcellulose (CMC) 102 % of control

CN(Cc1ccccc1)C(=O)c1ccc(C(=O)N(C)Cc2ccccc2)cc1
inactive: [4] 97 % of control | [6] 108 % of control | dose: 400.0 mg/kg/injection, schedule: Q01DX009 (ip), vehicle: Klucel (hydroxypropylcellulose) (HPC) 102 % of control
